# Results reported in patent US20090042993A1, “IDENTIFICATION OF NOVEL POST-TRANSLATIONAL PROTEIN MODIFICATIONS” (priority 2007, published 2009).
# Experiments:
# [1] = tested on: BACE1; experiment: Pulse-chase and cell-surface biotinylation of newly-synthesized BACE1; format: cell-based, human; details: BACE1WT expressing cells, 1.5 hours after the pulse
# Experimental: (§1) Confluent cells were starved for 1 hr in Met/Cys free medium, labeled with 100 μCi [^35S]-Met/Cys (Trans35S-Label, >1000 Ci/mmol; Pierce) in starvation medium/dish and chased for 8, 16, and 24 hours with DMEM supplemented with 5 mM cold Met/Cys. Cell extracts were pre-cleared with BioMag Protein A (Polysciences, Inc.). Beads were used at the concentration of 15 μl of the slurry per sample and separated with a magnetic holder. BACE1 was then immunoprecipitated with anti-BACE1 antibodies and recovered with BioMag Protein A as above. The immunoprecipitate-bead complexes were washed 3 times and boiled in sample buffer. Beads were then separated and the samples were analyzed by reducing SDS-PAGE (on a 4-12% Bis-Tris NuPAGE system) and autoradiography.
# For cell-surface biotinylation, cells were labeled as above and chased for 1.5 hours. […] Proteins were eluted and recovered as above; BACE1 was then immunopurified and analyzed by reducing SDS-PAGE and autoradiography.
# FIG. 3 illustrates how transient lysine acetylation controls both translocation along the secretory pathway and molecular stability of the nascent BACE1 protein. […] Immunoprecipitates were analyzed by SDS-PAGE and autoradiography. […] BACE1 was then immunoprecipitated as above and analyzed by reducing SDS-PAGE and autoradiography. Results are expressed as percentage of total newly-synthesized BACE1. […]
# [2] = tested on: BACE1; experiment: Pulse-chase half-life of BACE1; format: cell-based, human; details: following ceramide treatment; ~16 hours without
# Experimental: as §1
# FIG. 3 illustrates how transient lysine acetylation controls both translocation along the secretory pathway and molecular stability of the nascent BACE1 protein. […] Immunoprecipitates were analyzed by SDS-PAGE and autoradiography. […] BACE1 was then immunoprecipitated as above and analyzed by reducing SDS-PAGE and autoradiography. Results are expressed as percentage of total newly-synthesized BACE1. […] BACE1 was immunoprecipitated from total cell lysates and analyzed by SDS-PAGE and autoradiography. The half-life of BACE1 from five different readings is shown in FIG. 3(C), whereas a representative radiogram is shown in FIG. 3(D). […]
structure (smiles),measurement,setting,value
"CCCCCCCCCCCCC/C=C/[C@@H](O)[C@H](CO)NC(=O)CCCCC [ceramide, C6-ceramide]",translocation of newly-synthesized BACE1 to the cell surface,[1],increasing the translocation of newly-synthesized BACE1 to the cell surface to levels almost similar to BACE1Gln
same,half-life of native BACE1,[2],~24 h
